Measurements published in patent US3954227A, “Pharmaceutical compositions containing 1-(2',3'-dimethylphenoxy)-3-tert. butylamino-2-propanol or pharmaceutically acceptable salt thereof for treating or preventing coronary disorders” (Teikoku Hormone Mfg. Co., Ltd., priority 1969, dated 1976).
Entries after “also recorded” stand apart in the source; their conditions may differ. Where two headings read alike, the source gives them in different places.

Assays:
[1] = test system: angina pectoris patients; experiment: Clinical test: bicycle ergometer exercise test in angina pectoris patients, double blind cross over; assay type: in vivo, human; design: Change in heart rate b)-a): unit not given here; details: for Change in heart rate b)-a) / Exercise time / a) Heart rate before exercise / b) Heart rate after exercise: compound A 5 mg twice daily, PROPRANOLOL 40 mg × 2, third day; for b) Heart rate after exercise: in beats/min (unit assumed)
Method: A test was then conducted on the third day 3 hours after the first administration. […] The test was carried out by the double blind method with a cross over test having a rest period of 10 days. The test method consisted of an exercise test utilizing a bicycle ergometer. After measuring the heart rates of the patients before starting the test, the patients were made to pedal the bicycle ergometer until they were seized with an attack of anginal pain, the effectiveness of the chemicals being judged by the time up to the attack and the heart rate at that time.

[2] = oral; cited from earlier work
[3] = test system: rat; experiment: Behavior analysis, rat; details: 4 hours observation
Method: (§1) The chemical to be tested was administered orally, and observations of the behaviors of the rats were carried out for 4 hours after administration of the chemical.
One group consisted of three rats.

[4] = test system: mouse; experiment: Behavior analysis, mouse (simplified Irwin's multidimensional method); details: 4 hours observation
Description: (§2) The effects of chemicals on the behavior of mouse was examined by a simplified method of Irwin's multidimensional behavior analysis method.

[5] = test system: beta-adrenergic (heart rate increase due to ISOPROTERENOL); experiment: Beta-adrenergic blocking activity in the case of intravenous injection, rat (antagonism to heart rate increase due to ISOPROTERENOL); assay type: in vivo, rat (Wistar)
Method: 1. Beta-adrenergic blocking activity in the case of intravenous injection (Antagonism to heart rate increase due to ISOPROTERENOL)
a. Male rats of Wistar strain weighing ca. 300 grams were anesthetized with PENTOBARBITAL-Na (60 mg/kg i.p.), after which they are secured in a supine position. The electrocardiogram was registered in the second lead, on a polygraph. ISOPROTERENOL (0.1 μg/kg) was administered through the left femoral vein at 7-minute intervals.
The heart rate increase for the first two times was averaged and used as control.
The antagonistic chemical was intravenously injected from the third time the ISOPROTERENOL was administered, the administration being performed cumulatively and sequentially in the amounts of respectively 6.25, 25, 100 . . . μg/kg invariably at a point 2 minutes before each administration of ISOPROTERENOL until the effects thereof practically disappeared.

[6] = test system: heart rate; experiment: Heart rate drop at the dosage required for manifestation of beta-adrenergic blocking activity, rat; assay type: in vivo
[7] = test system: heart rate; experiment: Heart rate drop at the dosage required for manifestation of beta-adrenergic blocking activity, dog; assay type: in vivo
[8] = test system: heart rate; experiment: Effect on heart rate (general statements); assay type: in vivo
[9] = test system: mouse; details: in vivo, 240 min
Description: as §2

[10] = test system: rat; details: in vivo, 240 min
Method: as §1
One group consisted of three rats.

[11] = test system: rat; details: orally
[12] = test system: dog; details: orally
[13] = in vivo
[14] = test system: rat; experiment: Degree of safety (ratio of side reaction or lethal dosage to effective dosage), rat; details: in vivo, po
[15] = test system: dog; experiment: Degree of safety (ratio of side reaction or lethal dosage to effective dosage), dog; details: in vivo, po
[16] = test system: beta-adrenergic; experiment: Beta-adrenergic blocking activity of metabolites (Table 2); assay type: in vivo; details: for Beta-adrenergic blocking activity compared with PROPRANOLOL, in words: in vivo
[17] = test system: heart rate; experiment: Change in heart rate at the dosage required for manifestation of the beta-adrenergic blocking activity (Table 2); assay type: in vivo

For CC(C)NCC(O)COc1cccc2ccccc12 (stereo not shown) [PROPRANOLOL, 1-naphthoxy-3-isopropylamino-2-propanol, reference compound], the “Change in heart rate b)-a)” value ([1]; Case No. 1) was 35, the Exercise time ([1]; Case No. 1) was 134 s and the a) Heart rate before exercise ([1]; Case No. 1) was 74 beats/min. The “b) Heart rate after exercise” value ([1]; Case No. 1) was 109, the “Change in heart rate b)-a)” value ([1]; Case No. 2) was 27 and the Exercise time ([1]; Case No. 2) was 146 s. The a) Heart rate before exercise ([1]; Case No. 2) was 69 beats/min, the “b) Heart rate after exercise” value ([1]; Case No. 2) was 96 and the “Change in heart rate b)-a)” value ([1]; Case No. 3) was 27. For the same compound, the Exercise time ([1]; Case No. 3) was 102 s, the a) Heart rate before exercise ([1]; Case No. 3) was 75 beats/min and the “b) Heart rate after exercise” value ([1]; Case No. 3) was 102. For the same compound, the “Change in heart rate b)-a)” value ([1]; Mean of 3 cases) was 29.7, the Exercise time ([1]; Mean of 3 cases) was 127.3 s and the a) Heart rate before exercise ([1]; Mean of 3 cases) was 72.7 beats/min. For the same compound, the “b) Heart rate after exercise” value ([1]; Mean of 3 cases) was 102.3, the “Suppression of the heart rate vs placebo, in words” value ([1]; as compared with the placebo) was “marked suppression of the heart rate” and the “Metabolized when orally administered” value [2] was 90%. The “Dose at which effects appeared from the standpoints of behavior analysis (PO)” value (“Dose at which effects appeared” below) [3] was 25 mg and the “Dose at which effects appeared” value [4] was 100 mg.

With Cc1cccc(OCC(O)CNC(C)(C)C)c1C (stereo not shown) [compound A, 1-(2',3'-dimethylphenoxy)-3-tert. butylamino-2-propanol] the “Relative effectiveness iv (beta-adrenergic blocking activity, PROPRANOLOL = 1.0)” value [5] was 2, the “Heart rate % drop at the dosage required for manifestation of beta-adrenergic blocking activity [ED50]” value (“Heart rate % drop at the dosage required” below) ([6]; PO) was 4% and the “Heart rate drop at the dosage required for manifestation of beta-adrenergic blocking activity [ED50]” value (“Heart rate drop at the dosage required” for short) ([6]; PO) was 15 No/min. For the same compound, the “Heart rate % drop at the dosage required” value ([6]; iv) was 15%, the “Heart rate drop at the dosage required” value ([6]; iv) was 55 No/min and the “Heart rate % drop at the dosage required” value ([7]; PO) was 2%. The “Heart rate drop at the dosage required” value ([7]; PO) was 3 No/min, the “Heart rate % drop at the dosage required” value ([7]; iv) was 16% and the “Heart rate drop at the dosage required” value ([7]; iv) was 23 No/min. For the same compound, the “Change in heart rate b)-a)” value ([1]; Case No. 1) was 17, the Exercise time ([1]; Case No. 1) was 187 s and the a) Heart rate before exercise ([1]; Case No. 1) was 81 beats/min. The “b) Heart rate after exercise” value ([1]; Case No. 1) was 98, the “Change in heart rate b)-a)” value ([1]; Case No. 2) was 20 and the Exercise time ([1]; Case No. 2) was 203 s. The a) Heart rate before exercise ([1]; Case No. 2) was 76 beats/min, the “b) Heart rate after exercise” value ([1]; Case No. 2) was 96 and the “Change in heart rate b)-a)” value ([1]; Case No. 3) was 19. The Exercise time ([1]; Case No. 3) was 144 s, the a) Heart rate before exercise ([1]; Case No. 3) was 84 beats/min and the “b) Heart rate after exercise” value ([1]; Case No. 3) was 103. The “Change in heart rate b)-a)” value ([1]; Mean of 3 cases) was 18.7, the Exercise time ([1]; Mean of 3 cases) was 178.0 s and the a) Heart rate before exercise ([1]; Mean of 3 cases) was 80.3 beats/min. For the same compound, the “b) Heart rate after exercise” value ([1]; Mean of 3 cases) was 99.0, the “Exercise time up to attack with anginal pains vs placebo, in words” value ([1]; as compared with the placebo) was “increases the exercise time up to the time the attack with anginal pains takes place” and the “Increase in the heart rate due to the exercise vs placebo, in words” value ([1]; as compared with the placebo) was “suppresses the increase in the heart rate due to the exercise”. The “Suppression of the heart rate vs placebo, in words” value ([1]; as compared with the placebo) was “practically no suppression of the heart rate”, the “Effectiveness compared with PROPRANOLOL, in words” value ([1]; human, in vivo) was “far greater than that of PROPRANOLOL” and the “Effect on heart rate, in words” value ([8]; injection) was “high decrease in heart rate; also recorded: a drop in heart rate likewise takes place”. For the same compound, the “Effect on heart rate, in words” value ([8]; oral / intestinal absorption route) was “the normal heart rate is hardly affected at all; also recorded: practically no change in heart rate; also recorded: without hardly any effect on the heart rate”, the “Dose at which effects appeared” value [9] was 200 mg and the “Dose at which effects appeared” value [10] was 50 mg. For the same compound, the LD50 [11] was 580 mg, the LD50 [12] was 300 mg and the “Degree of safety compared with the other similar compounds” value [13] was 7-20 times. For the same compound, the “Degree of safety, times that of PROPRANOLOL” value [14] was “about 14 times” and the “Degree of safety, times that of PROPRANOLOL” value [15] was “more than 16 times”.

With Cc1c(O)ccc(OCC(O)CNC(C)(C)C)c1C (stereo not shown) [compound B] the “Relative beta-adrenergic blocking effectiveness as compared to PROPRANOLOL” value ([16]; i.v.) was 5.5, the “Beta-adrenergic blocking activity compared with PROPRANOLOL, in words” value [16] was “higher beta-adrenergic blocking activity than PROPRANOLOL” and the “Relative beta-adrenergic blocking effectiveness as compared to PROPRANOLOL” value ([16]; p.o.) was 2.5. The “Action of suppressing the heart rate compared with PROPRANOLOL, in words” value ([17]; in vivo) was “lower action of suppressing the heart rate and lesser side reactions”, the “Change in heart rate at the dosage required for manifestation of the beta-adrenergic blocking activity” value ([17]; in vivo) was “+10 No./min” and the “Change in heart rate, % increase, at the dosage required for manifestation of the beta-adrenergic blocking activity” value ([17]; increase) was 3%. For the same compound, the “Change in heart rate by injection, in words” value [17] was “small”.

For Cc1c(CO)cccc1OCC(O)CNC(C)(C)C (stereo not shown) [compound C], the “Relative beta-adrenergic blocking effectiveness as compared to PROPRANOLOL” value ([16]; i.v.) was 4.5, the “Beta-adrenergic blocking activity compared with PROPRANOLOL, in words” value [16] was “higher beta-adrenergic blocking activity than PROPRANOLOL” and the “Relative beta-adrenergic blocking effectiveness as compared to PROPRANOLOL” value ([16]; p.o.) was 4.0. The “Action of suppressing the heart rate compared with PROPRANOLOL, in words” value ([17]; in vivo) was “lower action of suppressing the heart rate and lesser side reactions” and the “Change in heart rate by injection, in words” value [17] was “small”.
